Among the data in patent US4994465A, “Antihyperlipidemic and antiatherosclerotic trisubstituted urea compounds” (Warner-Lambert Company, priority 1990, dated 1991) are IC50 values, retold here.

The target of the assay is T1, acyl-CoA:cholesterol acyltransferase (ACAT) (Oryctolagus cuniculus, UniProt G1SFD9).
T1 construct: a tissue preparation containing rabbit intestinal microsomes; from tissue; host or cells: rabbit intestinal microsomes
T1 sequence (G1SFD9 1-524): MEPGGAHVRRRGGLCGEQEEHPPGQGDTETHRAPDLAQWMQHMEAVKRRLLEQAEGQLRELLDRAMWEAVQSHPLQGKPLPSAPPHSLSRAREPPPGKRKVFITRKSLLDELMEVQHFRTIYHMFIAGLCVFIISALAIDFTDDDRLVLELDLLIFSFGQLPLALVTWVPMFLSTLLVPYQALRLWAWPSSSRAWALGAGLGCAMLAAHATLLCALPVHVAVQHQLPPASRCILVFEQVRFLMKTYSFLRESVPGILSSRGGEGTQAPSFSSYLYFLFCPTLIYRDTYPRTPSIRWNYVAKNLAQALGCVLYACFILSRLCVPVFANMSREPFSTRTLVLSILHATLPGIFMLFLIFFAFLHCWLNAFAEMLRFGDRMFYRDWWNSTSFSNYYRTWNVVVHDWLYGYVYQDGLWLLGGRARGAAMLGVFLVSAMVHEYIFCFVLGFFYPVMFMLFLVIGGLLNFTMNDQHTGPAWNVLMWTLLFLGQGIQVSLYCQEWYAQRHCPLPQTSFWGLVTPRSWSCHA
The experiment in a line: ACAT inhibition in vitro: radiolabeled cholesterol oleate formed from radiolabeled oleic acid in rabbit intestinal microsomes. It counts as biochemical. The settings on record: concentration required to inhibit 50% […] of the enzyme. Here is the method: The ability of representative compounds of the present invention to inhibit ACAT was measured using an in vitro test more fully described in Field, F. J. and Salone, R. G., Biochemica et Biophysica 712:557-570 (1982). The test assesses the ability of a test compound to inhibit the acylation of cholesterol by oleic acid by measuring the amount of radiolabeled cholesterol oleate formed from radiolabeled oleic acid in a tissue preparation containing rabbit intestinal microsomes.
The data appear in Table 1 where they are expressed in IC50 values; i.e., the concentration of test compound required to inhibit 50% […] of the enzyme.
The IC50 is the concentration needed to halve the response being measured. Higher therefore signals lower potency. In turn, `O=C(Nc1ccc(F)cc1F)N(Cc1ccccc1)CC(c1ccccc1)c1ccccc1` [Example 1, N'-(2,4-difluorophenyl)-N-benzyl-N-[(2,2-diphenyl)ethyl]urea] had an IC50 of 290 nM.

In turn, `Cc1cccc(C)c1NC(=O)N(Cc1ccccc1)CC(c1ccccc1)c1ccccc1` [Example 2, N'-[(2,6-dimethyl)phenyl]-N-benzyl-N-[(2,2-diphenyl)ethyl]urea] had an IC50 of 1370 nM.

In turn, `CC(C)c1cccc(C(C)C)c1NC(=O)N(Cc1ccccc1)CC(c1ccccc1)c1ccccc1` [Example 3, N'-[2,6-bis(1-methylethyl)phenyl]-N-benzyl-N-[(2,2-diphenyl)ethyl]urea] returned an IC50 of 1300 nM.

As to `O=C(Nc1ccc(F)cc1F)N(Cc1ccccc1)CC1(c2ccccc2)CCCC1` [Example 4, N'-(2,4-difluorophenyl)-N-benzyl-N-[(1-phenylcyclopentyl)methyl]urea], the IC50 worked out at 90 nM. Against the preceding molecule, the IC50 is about 14-fold lower.

Turning to `O=C(Nc1c(Cl)cccc1Cl)N(Cc1ccccc1)CC1(c2ccccc2)CCCC1` [Example 5, N'-(2,6-dichlorophenyl)-N-benzyl-N-[(1-phenylcyclopentyl)methyl]urea], inhibition was half-maximal at 51 nM (IC50).

The molecule `Cc1cc(C)c(NC(=O)N(Cc2ccccc2)CC2(c3ccccc3)CCCC2)c(C)c1` [Example 6, N'-(2,4,6-trimethylphenyl)-N-benzyl-N-[(1-phenylcyclopentyl)methyl]urea] yielded an IC50 of 80 nM.

As to `CC(C)c1cccc(C(C)C)c1NC(=O)N(Cc1ccccc1)CC1(c2ccccc2)CCCC1` [Example 7, N'-[2,6-bis(1-methylethyl)phenyl]-N-benzyl-N-[(1-phenylcyclopentyl)methyl]urea], half-maximal inhibition (IC50) required 170 nM.

For the molecule `Cc1cccc(C)c1NC(=O)N(Cc1ccccc1)CC1(c2ccccc2)CCCC1` [Example 8, N'-[(2,6-dimethyl)phenyl]-N-benzyl-N-[(1-phenylcyclopentyl)methyl]urea], the IC50 is 59 nM.

On to `CCCCCCCN(CC1(c2ccccc2)CCCC1)C(=O)Nc1c(C(C)C)cccc1C(C)C` [Example 9, N'-[2,6-bis(1-methylethyl)phenyl]-N-heptyl-N-[(1phenylcyclopentyl)methyl]urea], for which the IC50 is 110 nM.

Consider `CCCCCCCN(CC1(c2ccccc2)CCCC1)C(=O)Nc1c(C)cccc1C` [Example 10], for which the IC50 is 61 nM.

Turning to `CCCCCCCN(CC1(c2ccccc2)CCCC1)C(=O)Nc1ccc(F)cc1F` [Example 11, N'-(2,4-difluorophenyl)-N-heptyl-N-[(1-phenylcyclopentyl)methyl]urea], the IC50 was 310 nM.

Turning to `CCCCCCCN(CC(c1ccccc1)c1ccccc1)C(=O)Nc1c(C)cccc1C` [Example 12, N'-[(2,6-dimethyl)phenyl]-N-heptyl-N-[(2,2-diphenyl)ethyl]urea], the IC50 is 1300 nM. This IC50 is about 4.2-fold higher than that of the molecule before.

In turn, `CCCCCCCN(CC(c1ccccc1)c1ccccc1)C(=O)Nc1ccc(F)cc1F` [Example 13, N'-(2,4-difluorophenyl)-N-heptyl-N-[(2,2-diphenyl)ethyl]urea] returned an IC50 of 170 nM.
